# Key:
# Type in all cases: binding, mouse
# [1] = test system: monoclonal anti-histamine antibody; experiment: Competitive kinetics: histamine and methylhistamine mixed with histamine-conalbumin conjugate over captured anti-histamine Mab (BIAcore SPR); details: 220 nM ligand solution mixed with 80 nM conjugate solution; 10 μl/min for 8 minutes; FIG. 6
# Protocol: (§1) A continuous flow of HBS (10 mM Hepes with 0.15M NaCl, 3.4 mM EDTA and 0.05% surfactant P20 at pH 7.4) was maintained over a BIAcore™ sensor chip CM5 (a gold-plated glass slide supporting a carboxymethyldextran layer via a monolayer of long-chain hydrocarbons; supplied by Pharmacia Biosensor AB, Uppsala, Sweden). The carboxylated matrix on the sensor surface was activated by a three-minute injection of a solution containing 0.2M N-ethyl-N'-(3-diethylaminopropyl)carbodiimide (EDC) and 0.05M N-hydroxysuccinimide (NHS). 100 μg/ml of rabbit anti-mouse Fc (RAMFc) antibodies (Pharmacia Biosensor AB, Uppsala, Sweden) in 10 mM acetate buffer, pH 4.75, were then injected followed by a pulse of ethanolamine-hydrochloride, pH 8.5, to block remaining NHS-ester groups.
# Different solutions of the above prepared conalbumin conjugate, varying in concentration from 100 to 1000 nM, were then injected and the binding curves were recorded. […] For the following competitive experiment, a concentration of 80 nM was chosen.
# [2] = test system: monoclonal anti-p24 antibody (Mab 7); experiment: Competitive kinetics: synthetic p24 derived peptides mixed with p24 over captured anti-p24 Mab (BIAcore SPR); details: for affinity for the antibody (qualitative): p24 at 60 nM and the peptides at 44 μM, FIG. 4
# Protocol: With the above prepared sensor surface docked into the BIAcore™ instrument, a solution of purified monoclonal anti-p24 antibody (Pharmacia Diagnostics AB, Uppsala, Sweden), hereinafter referred to as Mab 7, was injected, the anti-p24 monoclonal antibody thereby being captured by the immobilized RAMFc. Different solutions of HIV core protein p24 (Pharmacia Genetic Engineering, San Diego, USA), varying in concentration from 18.75 to 300 nM, were then injected and the binding curves, relative response in resonance units (RU) versus time in seconds, were recorded (1 RU corresponds to a mass change, caused by the binding of a protein, on the sensor surface of about 1 pg/mm^2; Stenberg, E., et al., J. Colloid and Interface Sci. 143 (1991) 513-526).
# 100 μl volumes of a 60 nM solution of p24 in HBS were mixed with 100 μl of different concentrations (5 nM to 1 mM) of two synthetic p24 derived peptides corresponding to (i) the regions 329-352 (peptide 7): […] (Mw =2494), and (ii) the regions 332-349 (peptide 5): […] (Mw =1841) (obtained from Dr Ake Engstrom, Department of Immunology, Biomedical Center, University of Uppsala, Sweden). The peptide sequences are according to Ratner et al., Nature 313, 227-284, 1985 and are numbered according to Myers G. et al., Database Human Retroviruses and AIDS, Los Alamos National Laboratory, Los Alamos, U.S.A., 1988. Each mixture was injected at 10 μl/min for two minutes over the sensor surface with captured anti-p24 antibody and the respective binding curves for each peptide were recorded. Peptide 5 was used at the concentrations: 0, 4.91, 14.75, 44.26, 132.78, 398.33, and 1195.00 μM; and peptide 7 at the concentrations 0, 0.005, 0.016, 0.049, 0.147, 0.441, and 1.323 μM.
# The binding curves for peptide 5 are shown in overlay plot in FIG. 2, and a corresponding overlay plot of the binding curves for peptide 7 is shown in FIG. 3. […] Evidently, these two peptides have quite different affinities for the immobilized antibody.
# [3] = test system: monoclonal anti-theophylline antibody; experiment: Competitive kinetics: theophylline derivatives mixed with aminotheophylline-conalbumin conjugate over captured anti-theophylline Mab (BIAcore SPR); details: 500 nM ligand solution mixed with 620 nM conjugate solution; 10 μl/min for 90 seconds; FIG. 5
# Protocol: as §1
# Different solutions of the above prepared conalbumin conjugate varying in concentration from 100 to 1000 nM, were then injected and the binding curves were recorded.
Compound,affinity for the antibody (relative ranking) [1],affinity for the antibody (qualitative) [2],affinity for the antibody (relative ranking) [3],further results
methylhistamine,higher affinity,–,–,–
"DCKTILKALGPAATLEEMMTACQG [peptide 7, synthetic p24 derived peptide, regions 329-352]",–,high affinity,–,"peptide concentration at which competing kinetics is seen ([2]; mixed with 60 nM p24 solution, 10 μl/min for two minutes, FIG. 3): 5 nM"
"Cn1c(=O)c2c(ncn2CC(=O)O)n(C)c1=O [acetic acid derivative of theophylline, 7-theophylline acetic acid]",–,–,much lower affinity,–
aminotheophylline,–,–,highest affinity,–
"TILKALGPAATLEEMMTA [peptide 5, synthetic p24 derived peptide, regions 332-349]",–,low affinity,–,"peptide concentration at which competition is evident ([2]; mixed with 60 nM p24 solution, 10 μl/min for two minutes, FIG. 2): evident only at μM concentrations"
NCCc1c[nH]cn1 [histamine],methylhistamine has a higher affinity for the antibody than histamine itself,–,–,–

# Reference: patent US5753518A, “Method of determining affinity and kinetic properties” (Pharmacia AB, priority 1993, dated 1998)
